Usually Ki stands for a measure of affinity in units of concentration, obtained from inhibition or displacement. For orientation: Cmax means the maximum level reached in the sampled fluid or tissue. One may read the MRT as a mean duration of stay, worked out from the concentration-time curve. A word on the half-life: it is how long it takes for the measured level to halve. A high value points to slow loss. As a reminder, the CL/F is the apparent clearance, not corrected for the fraction that reaches the circulation. Usually inhibition stands for how much of the control response was suppressed.

The source made the active and inactive calls. No cut-off for these calls is given here.

The target of data set [1] is T1, Glutathione hydrolase 1 proenzyme (Homo sapiens, UniProt P19440). Nature of the data set: Inhibition of GGT1 (unknown origin) assessed as GSH hydrolysis by measuring inhibition constant.
Data set [2] deals with T1, Glutathione hydrolase 1 proenzyme. Nature of the data set: Inhibition of GGT1 (unknown origin) transpeptidation assessed as inhibition constant using L-GpNA as substrate in presence of Gly-Gly.
Data set [3] is described as follows: In-vivo inhibition of GGT1 in mouse assessed as increase in cystine level in plasma measured after 1 hrs. In kind it is functional.
Data set [4] is described as follows: Inhibition of bovine GGT1 transpeptidation assessed as inhibition constant. Also on record: species or system Bos taurus.
Data set [5] can be described thus: Inhibition of bovine GGT1 assessed as GSH hydrolysis by measuring inhibition constant. Further details: species or system Bos taurus.
Data set [6] is described as follows: Cmax in C57BL/6 mouse at 0.3 mg/kg, ip. Further details: dose 0.3 mg/kg, route ip. In kind it is ADME, organism-based. The note with it: in vivo.
Data set [7] is described as follows: MRT in C57BL/6 mouse at 0.3 mg/kg, ip. In kind it is ADME, organism-based. The note with it: in vivo.
Data set [8] in a line: Half life in C57BL/6 mouse at 0.3 mg/kg, ip. In kind it is ADME, organism-based. The note with it: in vivo.
Data set [9] in a line: Clearance in C57BL/6 mouse at 0.3 mg/kg, ip. In kind it is ADME, organism-based. The note with it: in vivo.
The nature of data set [10]: Volume of distribution at steady in C57BL/6 mouse at 0.3 mg/kg, ip. In kind it is ADME, organism-based. To be noted: in vivo.
Data set [11] concerns Mus musculus. The data set is described as follows: In-vivo inhibition of GGT1 in mouse assessed as effect on cysteine level in plasma measured at 0.5 to 48 hrs. In kind it is functional. The note with it: dose 0.2-1 mg, time 0.5-48 hrs.
In data set [12] the test system is Mus musculus. The data set is described as follows: In-vivo inhibition of GGT1 in mouse assessed as effect on GSSG level in plasma measured at 0.5 to 48 hrs. To be noted: dose 0.2-1 mg, time 0.5-48 hrs. In kind it is functional.
Data set [13] relates to Mus musculus. The data set is described as follows: In-vivo inhibition of GGT1 in mouse assessed as effect on GSH level in plasma measured at 0.5 to 48 hrs. In kind it is functional. To be noted: dose 0.2-1 mg, time 0.5-48 hrs.
In data set [14] the test system is Mus musculus. The data set is described as follows: In-vivo inhibition of GGT1 in mouse assessed as effect on cysteine level in plasma at 0.2 to 1 mg. In kind it is functional. To be noted: dose 0.2-1 mg, time 0.5-48 hrs, TDE = time-dependent effect.
Data set [15] relates to Mus musculus. The data set is described as follows: In-vivo inhibition of GGT1 in mouse assessed as effect on GSSG level in plasma at 0.2 to 1 mg. In kind it is functional. To be noted: dose 0.2-1 mg, time 0.5-48 hrs, TDE = time-dependent effect.
For data set [16], the system named is Mus musculus. Nature of the data set: In-vivo inhibition of GGT1 in mouse assessed as effect on GSH level in plasma at 0.2 to 1 mg. In kind it is functional. To be noted: dose 0.2-1 mg, time 0.5-48 hrs, TDE = time-dependent effect.
The nature of data set [17]: In-vivo inhibition of GGT1 in mouse assessed as decrease in cysteine level in plasma at 0.03 mg measured after 1 hrs. In kind it is functional.
Data set [18] can be described thus: In-vivo inhibition of GGT1 in mouse assessed as decrease in cystine level in plasma at 0.03 mg measured after 1 hrs. In kind it is functional.
Data set [19] is described as follows: In-vivo inhibition of GGT1 in mouse assessed as decrease in total cysteine level in plasma at 0.03 mg measured after 1 hrs. In kind it is functional.
A short description of data set [20]: In-vivo inhibition of GGT1 in mouse assessed as increase in GSSG level in plasma at 0.03 mg measured after 1 hrs. In kind it is functional. To be noted: values are per cent of control.
A short description of data set [21]: In-vivo inhibition of GGT1 in mouse assessed as increase in GSH level in plasma at 0.03 to 1 mg measured after 1 hrs. To be noted: dose 0.03-1 mg, values are per cent of control. In kind it is functional.
Data set [22] deals with Mus musculus. Nature of the data set: In-vivo inhibition of GGT1 in mouse assessed as decrease in total cysteine level in plasma at 0.03 mg measured after 48 hrs. In kind it is functional.
The subject of data set [23] is Mus musculus. The data set is described as follows: In-vivo inhibition of GGT1 in mouse assessed as increase in GSH level in plasma at 0.03 mg measured after 48 hrs. In kind it is functional.
Data set [24] is described as follows: In-vivo inhibition of GGT1 in mouse assessed as decrease in GSH level in plasma at 0.03 mg measured after 1 hr. In kind it is functional.
Data set [25] can be described thus: In-vivo inhibition of GGT1 in mouse assessed as decrease in GSH level in plasma at 0.03 mg measured at 24 to 48 hrs. In kind it is functional. The note with it: time 24-48 hrs.
Data set [26] can be described thus: In-vivo inhibition of GGT1 in mouse assessed as decrease in GSH level in plasma at 0.03 mg measured at 24 hrs. In kind it is functional.
Data set [27] is described as follows: In-vivo inhibition of GGT1 in mouse assessed as decrease in GSH level in plasma at 0.03 mg measured at 48 hrs. In kind it is functional.
The nature of data set [28]: In-vivo inhibition of GGT1 in mouse assessed as increase in GSH-NEM level in plasma at 0.03 mg measured after 6 hrs. In kind it is functional. The note with it: values are per cent of control.
Data set [29] can be described thus: In-vivo inhibition of GGT1 in mouse assessed as increase in GSSG level in plasma at 0.03 mg measured after 6 hrs. To be noted: values are per cent of control. In kind it is functional.
Data set [30] can be described thus: In-vivo inhibition of GGT1 in mouse assessed as increase in total GSH level in plasma at 0.03 mg measured after 6 hrs. In kind it is functional. The note with it: values are per cent of control.
A short description of data set [31]: In-vivo inhibition of GGT1 in mouse assessed as increase in cystine-NEM level in plasma measured after 1 hrs. In kind it is functional.
Data set [32] deals with T1, Glutathione hydrolase 1 proenzyme. The data set is described as follows: Inhibition of GGT1 (unknown origin) assessed as GSH hydrolysis at […] relative to control.
Data set [33] shares this target. The data set is described as follows: Inhibition of GGT1 (unknown origin) transpeptidation at 37500 uM using L-GpNA as substrate in presence of Gly-Gly relative to control.
Data set [34] has the same target. The data set is described as follows: Inhibition of GGT1 (unknown origin) transpeptidation at 9100 uM using L-GpNA as substrate in presence of Gly-Gly relative to control.

T1 sequence (P19440 1-380 limits assumed): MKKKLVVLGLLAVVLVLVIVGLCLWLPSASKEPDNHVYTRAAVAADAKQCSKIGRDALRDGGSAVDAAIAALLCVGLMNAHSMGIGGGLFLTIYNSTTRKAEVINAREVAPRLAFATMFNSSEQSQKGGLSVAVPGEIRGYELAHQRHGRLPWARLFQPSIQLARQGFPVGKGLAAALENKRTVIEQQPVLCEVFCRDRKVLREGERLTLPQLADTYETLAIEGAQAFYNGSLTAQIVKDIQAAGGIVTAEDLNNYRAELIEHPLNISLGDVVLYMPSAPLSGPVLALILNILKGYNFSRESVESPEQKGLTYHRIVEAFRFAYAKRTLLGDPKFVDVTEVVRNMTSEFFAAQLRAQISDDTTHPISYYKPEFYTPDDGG
T1 sequence (P19440 381-569 limits assumed): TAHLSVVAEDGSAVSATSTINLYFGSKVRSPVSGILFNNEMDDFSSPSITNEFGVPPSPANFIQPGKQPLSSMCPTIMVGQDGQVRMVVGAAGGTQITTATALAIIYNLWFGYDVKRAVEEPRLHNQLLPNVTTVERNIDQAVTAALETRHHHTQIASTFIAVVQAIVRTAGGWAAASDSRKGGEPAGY

As for `CCC(N)(CCB(O)O)C(=O)O` (racemic), the Ki in [1] came out at 874 µM; in data set [2] it was 444 µM.

`N[C@@H](CCB(O)O)C(=O)O`: the results for the ID50 in data set [3] and in [31] were 0.002 mg and 0.22 mg, respectively. In addition, the Ki stood at 0.005 µM in [4], 0.005 µM in data set [2] and 0.025 µM in data set [5]. This molecule yielded a Cmax in data set [6] of 15300 ng/mL. Besides, the MRT in data set [7] was determined as 5.42 h. Moreover, the half-life in data set [8] is 3.92 h. Further, the CL/F in data set [9] is 0.0612 mL/min. Moreover, in [10], the Vdss was found to be 20.76 mL. In addition, the inhibition entry is “Dose-Dependent Effect” in data set [11]; “Dose-Dependent Effect” in data set [12]; “Dose-Dependent Effect” in data set [13]; “Tde” in data set [14]; “Tde” in [15]; “Tde” in data set [16]. Besides, the “inhibition (INH)” value in [17] was 25%; in data set [18], 75%; in [19] it was 35%; in data set [24] it was 85%; in [25] it was 33%; in data set [26], less than 50%. For the same molecule, the “inhibition (INH)” value in data set [27] was found to be 89%. Moreover, the “response, % of control” value turned out to be 1000% in [20]; 250% in data set [21]; 500% in [28]; 1500% in data set [29]; 1000% in data set [30]. The inhibition result in data set [22] and in [23] was “Active” in each case.

With `N[C@@H](CCCB(O)O)C(=O)O`, the Ki in data set [1] is more than 4000 µM; in data set [2] it was 3820 µM.

On to `COc1ccc(Cc2nnc(NS(=O)(=O)c3ccccc3)s2)cc1`, for which, in data set [2], the Ki turned out to be 68 µM.

In the case of `CC(N)(CCB(O)O)C(=O)O` (racemic), the Ki was 2.8 µM in data set [1] and 0.92 µM in data set [2].

`O=C(O)CCCB(O)O`: the inhibition in data set [32] and in [33] was 50% throughout.

For `CCCC(N)(CCB(O)O)C(=O)O` (racemic), the Ki was determined as 703 µM in data set [1] and 198 µM in [2].

Consider `N[C@H](CCB(O)O)C(=O)O`, for which the Ki came out at 0.045 µM in data set [4] and 0.077 µM in data set [5].

Regarding `NCCCB(O)O`, the Ki in [1] is more than 5000 µM. The inhibition entry in [34] was “inactive”.
